B1: Lactobacillus salivarius UCC118 transketolase (LsTktA) (enzyme, UniProt Q1WQU8 1-663, looked up)
chain: MYDQVDQLGVNTLRTLSIDAIQRANSGHPGLPMGAAPMAYVLWTRHLKINPKTHMNWVNRDRFVLSAGHGSALLYSLAHLAGYDVSMDDLKNFREWKSNTPGHPEYGCTDGVEATTGPLGQGISMAVGMAMAEAHLGKKFNREGYPVMDHYTYALIGDGDLMEGVASEAASLAGHLKLGKLIALYDSNGISLDGKTSASFTENVGARFEAYGWQYILVEDGFNLEEIDKAIVQAKAESDKPTIIEIKTTIGYGSENQGTHKVHGSPLGEEGVAHAKEVYNWNYPPFTVPEEVSQRFKECLQDKGVKAENKWNEMFEAYKKEYSDLAQKFSDGFSNKVPNTLGDILPQYGEDDSIATRAASQKAINALAKEVSSLWGGAADLASSNKTVIAGEGDFQPESYEGRNIWFGVREFGMACAMNGIMLHGGTRIFGSTFFVFSDYLKAAIRLSAIQKLPVIYVLTHDSVAVGKDGPTHEPIEQLASLRTIPNVQVFRPADGNETSAAWKVALETLDKPTILVLSRQNLDTLPISKEKVFDGVEKGGYVVQGAENEADGILIATGSEVGLALKAKEELQKKGKDVIVVSLPSWERFEAQSEEYKNTVIPPELKKRMTIEAGTTYGWAKYAGDHGVMIGIDEFGMSAPSDIVLRELGMSVENIVDKYLEK
notes: Transketolase (tktA, LSL_1946) of Lactobacillus salivarius UCC118, encoded on the megaplasmid pMP118; the histidine-tagged protein consists of 680 amino acids; 662 amino acids are modelled in the crystal structures; Crystallised apo and with TPP and Mg2+; also called L. salivarius Tkt; LSL_1946; source: E. coli Rosetta pLysS (DE3), purified (nickel-chelation chromatography, gel filtration)

How the values were obtained:
[1] = biological target: T1, LsTktA (Lactobacillus salivarius UCC118 transketolase) (Ligilactobacillus salivarius, UniProt Q1WQU8); assay: X-ray crystal structure of co-crystal, […] A; type: binding; details: Mg2+; co-crystallised with 0.5 mM TPP and 2 mM MgCl2; pH 7.5; 293 K; site at dimer interface
T1 construct: gene tktA; pOPINF, His-tagged, expressed in E. coli Rosetta pLysS (DE3); 680 residues with tag; 662 residues modelled; homodimer; megaplasmid pMP118-encoded
T1 sequence (Q1WQU8 1-663): B1 chain

[2] = biological target: the molecule itself; assay: SEC-MALS; Superdex 200 Increase 10/300 GL, 20 mM Tris-HCl pH 7.5, 200 mM NaCl, 0.5 mM TCEP, 20 C, with and without 0.5 mM TPP; about 1 mg/ml; dimer and monomer

Row | Molecule | X-ray crystal structure of co-crystal, 2.29 A [1] | stoichiometry N [2]
1 | Cc1ncc(C[n+]2csc(CCOP(=O)(O)OP(=O)(O)O)c2C)c(N)n1 [thiamine pyrophosphate] | Two symmetrical TPP cofactor-binding sites are located at the LsTktA dimer interface | –
2 | B1 | – | 2
